The values that follow come from PMC7481197, “Uncovering the cytochrome P450-catalyzed methylenedioxy bridge formation in streptovaricins biosynthesis” (Nature Communications, 2020).

Common to all, as to format: biochemical
Test [1] addresses T1, StvP2 (Streptomyces spectabilis, UniProt A0A286SBY7).
T1 construct: N-terminal 6xHis tag, eight amino acids between tag and StvP2 removed, expressed in E. coli C43(DE3); heme-containing (Cys349 ligand); one molecule per asymmetric unit when substrate-free
The experiment in a line: HPLC-DAD product formation, modified Hill equation fit. To be noted: spinach Fdx/FdR, 4 mM NADPH, 50 mM Tris-HCl pH 7.5, 28 °C, 4 min; substrate inhibition, descending arm.

In test [2] the target is T1, StvP2. The description is as above. The settings on record: spinach Fdx/FdR, 4 mM NADPH, 50 mM Tris-HCl pH 7.5, 28 °C, 4 min; ascending arm of substrate-inhibition curve; read-out: Ks.
Test [3] has as its target T2, StvM1 (Streptomyces spectabilis, UniProt A0A286SC47).
T2 construct: N-terminal 6xHis tag, pET28a(+) NdeI/EcoRI, expressed in E. coli BL21(DE3)
T2 sequence (A0A286SC47 1-202): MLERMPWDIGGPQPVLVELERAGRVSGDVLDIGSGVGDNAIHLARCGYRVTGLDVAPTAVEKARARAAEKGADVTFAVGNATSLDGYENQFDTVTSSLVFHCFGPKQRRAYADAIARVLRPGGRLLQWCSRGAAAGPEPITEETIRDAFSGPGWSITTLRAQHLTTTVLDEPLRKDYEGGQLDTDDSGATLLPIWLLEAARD
The experiment in a line: LC-ESI-HRMS conversion of […] to […]. The settings on record: methyl donor; 100 μM damavaricin C, 50 mM Tris-HCl pH 7.5, 28 °C, 3 h.

T1 sequence (A0A286SBY7 entry or part of it): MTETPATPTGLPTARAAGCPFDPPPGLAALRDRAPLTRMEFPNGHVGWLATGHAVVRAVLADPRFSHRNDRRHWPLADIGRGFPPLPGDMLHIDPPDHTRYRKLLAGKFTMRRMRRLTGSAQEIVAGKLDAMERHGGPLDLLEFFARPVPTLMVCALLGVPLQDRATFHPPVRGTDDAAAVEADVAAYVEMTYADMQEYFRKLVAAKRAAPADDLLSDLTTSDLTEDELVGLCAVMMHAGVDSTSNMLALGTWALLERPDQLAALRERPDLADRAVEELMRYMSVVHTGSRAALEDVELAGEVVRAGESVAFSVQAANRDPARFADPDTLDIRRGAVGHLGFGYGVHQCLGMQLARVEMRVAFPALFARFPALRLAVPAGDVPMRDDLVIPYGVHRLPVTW

In the case of `COC(=O)[C@@H]1[C@H](O)[C@H](C)[C@H](O)[C@H](C)/C=C\C=C(/C)C(=O)Nc2c(C)c(OC(C)=O)c3c(c(OC)c(C)c(O)c3c2O)C(=O)/C(C)=C/[C@@](C)(O)[C@H](O)[C@@H](C)[C@H]1O` [compound 2, 6-methoxy-streptovaricin C], the Ki in test [1] was determined as 367.30 ± 128.57 µM. Further, the Km in test [2] worked out at 110 ± 46.2 µM.

In test [1], 6-methoxy-streptovaricin H [compound 4] showed a Ki of 399.35 ± 122.10 µM. For the same molecule, in test [2], the Km came to 95.6 ± 30.8 µM.

In the case of `C[S+](CC[C@H](N)C(=O)O)C[C@H]1O[C@@H](n2cnc3c(N)ncnc32)[C@H](O)[C@@H]1O` (stereo partly shown) [SAM], the “LC-ESI-HRMS conversion of 7 to 8” value in test [3] was “using SAM as methyl donor”.

Regarding 6-methoxy-streptovaricin D [compound 6], the Ki in test [1] was 288.50 ± 122.60 µM. For the same molecule, the Km in test [2] was 67.4 ± 28.4 µM.
